Here are results for 31 compounds from ChEMBL document CHEMBL6120996, “Discovery and optimization of 1,2,4-triazole derivatives as novel ferroptosis inhibitors” (Eur J Med Chem, 2025).

Data set [1] concerns 786-0. In words: Inhibition of RSL3-induced ferroptosis in human 786-0 cells assessed as cell protection by assessing cell morphology at 1 uM incubated for 24 hrs. The format is functional, cell-based.
The subject of data set [2] is 786-0. Briefly: Inhibition of RSL3-induced ferroptosis in human 786-0 cells assessed as cell viability incubated for 24 hrs by CellTiter-LumiTM assay. The format is functional, cell-based. The conditions noted are these: 786-0, 24 h.
A short description of data set [3]: Metabolic stability in human plasma assessed as half life at 1 uM by LC-MS/MS analysis. The format is ADME, cell-free.
Data set [4] is described as follows: Antioxidant activity assessed as free radical scavenging activity at 50 uM incubated for 30 mins in dark by DPPH assay relative to control. The format is functional.
For data set [5], the system named is SK-HEP1. Briefly: Inhibition of RSL3 induced lipid-ROS accumulation in human SK-HEP1 cells at 1 uM incubated for 0.5 hrs by C11-BODIPY 581/591 staining coupled with flow cytometry analysis. The class given is functional, cell-based.
The subject of data set [6] is SK-HEP1. In words: Inhibition of RSL3 induced lipid-ROS accumulation in human SK-HEP1 cells at 1 uM incubated for 2.5 hrs by C11-BODIPY 581/591 staining coupled with flow cytometry analysis. The class given is functional, cell-based.
A short description of data set [7]: Suppression of autoxidation of liposomes egg ( unknown origin) phosphatidylcholine lipids as substrate at 0.1 to 2.5 uM incubated for 5 min by C11-BODIPY 581/591 dye based fluorescent assay. The following applies: dose 0.1-2.5 µM. The class given is functional.
The test system of data set [8] is 786-0. In words: Inhibition of RSL3-induced ferroptosis in human 786-0 cells assessed as cell viability by assessing cell morphology incubated for 24 hrs by CellTiter-LumiTM plus luminescent cell viability assay. The format is functional, cell-based. The conditions noted are these: 786-0, 24 h.
In data set [9] the test system is 786-0. In words: Inhibition of RSL3 induced lipid-ROS accumulation in human 786-0 cells assessed as fast elimination at 1 uM measured after 0.25 to 2.5 hrs by C11-BODIPY 581/591 staining coupled with flow cytometry analysis. The format is functional, cell-based. The conditions noted are these: time 0.25-2.5 hrs.
The next data set concerns HT-1080. In words: Anti-ferroptotic activity in human GPX4 knockout HT-1080 cells assessed as cell viability at 1 uM incubated for 24 hrs by CellTiter-LumiTM plus luminescent cell viability assay. The class given is functional, cell-based.
In data set [10] the test system is 786-0. In words: Inhibition of RSL3 induced lipid-ROS accumulation in human 786-0 cells incubated for 2.5 hrs by C11-BODIPY 581/591 staining coupled with flow cytometry analysis. The class given is functional, cell-based. The following applies: dose 0.1-1 µM.

Structures are written as SMILES. Active and inactive are the calls of the source. No cut-off for these calls is given here.

Consider `COc1cccc(C2N(c3ccccc3)N=C(C(C)=O)N2c2ccc(N(C)C)cc2)c1OCc1ccccc1C#N` (stereo not given), for which, in the data set on 786-0 [1], the outcome was Active. Further, the concentration giving a half-maximal response (EC50) with 786-0 [2] was 150 nM.
Take `COc1cccc(C2N(c3ccccc3)N=C(C(C)=O)N2c2ccc(N(C)C)cc2)c1OCc1ccc(Cl)cc1Cl` (stereo not given): the result with 786-0 [1] was Active. The EC50 in the data set with 786-0 [2] came out at 260 nM.
Turning to `COc1cccc(C2N(c3ccccc3)N=C(C(C)=O)N2c2ccc(N(C)C)cc2)c1OCc1cc(Cl)cc(Cl)c1` (stereo not given), the result with 786-0 [1] was Active. In addition, the EC50 in the data set on 786-0 [2] turned out to be 3710 nM.
`COc1cc(COc2c(OC)cccc2C2N(c3ccccc3)N=C(C(C)=O)N2c2ccc(N(C)C)cc2)ccc1F` (stereo not given): the EC50 in the data set with 786-0 [2] worked out at 170 nM.
Regarding `CC(=O)C1=NN(c2ccccc2)C(c2ccccc2OCc2ccc(Cl)cc2Cl)N1c1ccc(N(C)C)cc1` (stereo not given), the result in the data set on 786-0 [1] was Active. In the data set with 786-0 [2], the EC50 was 390 nM.
As to `COc1ccc(COc2c(OC)cccc2C2N(c3ccccc3)N=C(C(C)=O)N2c2ccc(N(C)C)cc2)cc1OC` (stereo not given), the EC50 in the data set with 786-0 [2] worked out at 300 nM.
As to `COc1cccc(C2N(c3ccccc3)N=C(C(C)=O)N2c2ccc(N(C)C)cc2)c1OCc1c(C)cccc1C` (stereo not given), in the data set with 786-0 [1], the outcome was Active. Besides, in the data set on 786-0 [2], the EC50 turned out to be 150 nM.
As to `CC(C)[N+](C)(CCOC(=O)C1c2ccccc2Oc2ccccc21)C(C)C` [PROPANTHELINE], the half-life at 1 µM in [3] turned out to be 27.9 min.
Regarding `COc1cccc(C2N(c3ccccc3)N=C(C(C)=O)N2c2ccc(N(C)C)cc2)c1OCc1ccc(Cl)cc1` (stereo not given), in the data set with 786-0 [1], the outcome was Active. The EC50 with 786-0 [2] came out at 120 nM.
On to `COc1cccc(C2N(c3ccccc3)N=C(C(C)=O)N2c2ccc(N(C)C)cc2)c1OCc1ccc(C#N)cc1` (stereo not given), for which the result in the data set with 786-0 [1] was Active. The EC50 with 786-0 [2] amounted to 150 nM.
Consider `COc1cc(COc2c(OC)cccc2C2N(c3ccccc3)N=C(C(C)=O)N2c2ccc(N(C)C)cc2)cc(OC)c1OC` (stereo not given), for which, in the data set with 786-0 [2], the EC50 was 170 nM.
With `Clc1cccc(CNC2=Nc3ccccc3NC23CCNCC3)c1`, the result in data set [4] was Active. Moreover, the inhibition result with SK-HEP1 [5] and in the data set with SK-HEP1 [6] was “Active” in each case.
For the compound `COc1cccc(C2N(c3ccccc3)N=C(C(C)=O)N2c2ccc(N(C)C)cc2)c1OCc1ccc(C)cc1` (stereo not given), the outcome in the data set with 786-0 [1] was Active. The EC50 in the data set on 786-0 [2] was found to be 130 nM.
Take `COc1cccc(C2N(c3ccccc3)N=C(C(C)=O)N2c2ccc(N(C)C)cc2)c1OCc1ccc(C(C)(C)C)cc1` (stereo not given): in the data set on 786-0 [2], the EC50 came out at 870 nM.
With `COc1cccc(C2N(c3ccccc3)N=C(C(C)=O)N2c2ccc(N(C)C)cc2)c1OCc1cccc2ccccc12` (stereo not given), the outcome with 786-0 [1] was Active. The EC50 in the data set with 786-0 [2] was 190 nM.
In the same order, the values of `CC(=O)C1=NN(c2ccccc2)C(c2cc(C)ccc2OCc2ccc(Cl)cc2Cl)N1c1ccc(N(C)C)cc1` (stereo not given) are “Active” and 680 nM.
In the same order, the values of `COc1cccc(COc2c(OC)cccc2C2N(c3ccccc3)N=C(C(C)=O)N2c2ccc(N(C)C)cc2)c1` (stereo not given) are “Active” and 150 nM.
Turning to `COc1cccc(C2N(c3ccccc3)N=C(C(C)=O)N2c2ccc(N(C)C)cc2)c1OCc1ccc(F)cc1` (stereo not given), in the data set on 786-0 [1], the result was Active. Further, in the data set with 786-0 [2], the EC50 was determined as 140 nM.
With `COc1cccc(C2N(c3ccccc3)N=C(C(C)=O)N2c2ccc(N(C)C)cc2)c1OCc1ccc(Br)cc1` (stereo not given), in the data set on 786-0 [1], the outcome was Active. In addition, the EC50 with 786-0 [2] was 100 nM.
Take `CC(=O)C1=NN(c2ccccc2)C(c2ccc(C)cc2OCc2ccc(Cl)cc2Cl)N1c1ccc(N(C)C)cc1` (stereo not given): the outcome in the data set on 786-0 [1] was Active. Moreover, in the data set with 786-0 [2], the EC50 came to 710 nM.
As for `COc1cccc(C2N(c3ccccc3)N=C(C(C)=O)N2c2ccc(N(C)C)cc2)c1OCc1ccccc1Cl` (stereo not given), in the data set on 786-0 [1], the result was Active. Moreover, the EC50 in the data set with 786-0 [2] amounted to 150 nM.
Regarding `COc1cccc(C2N(c3ccccc3)N=C(C(C)=O)N2c2ccc(N(C)C)cc2)c1OCc1c(C)cc(C)cc1C` (stereo not given), the EC50 in the data set with 786-0 [2] is 360 nM.
In the case of `Cc1c(C)c2c(c(C)c1O)CCC(C)(C(=O)O)O2` (stereo not given), in data set [7], the Activity entry is “Dose-dependent-effect”. In [4], the result was Active.
`COc1cccc(C2N(c3ccccc3)N=C(C(C)=O)N2c2ccc(N(C)C)cc2)c1OCc1ccc(F)c(Cl)c1` (stereo not given): the EC50 in the data set on 786-0 [2] is 330 nM.
Consider `CCOC(=O)c1ccc(NC2CCCCC2)c(N)c1`, for which the EC50 in the data set on 786-0 [8] was determined as 67 nM. Besides, the outcome (in data set [4]; in the data set on HT-1080) was Active. The inhibition entry in the data set with SK-HEP1 [5], in the data set with 786-0 [9] and in the data set on SK-HEP1 [6] was “Active” each time. Further, the inhibition result in the data set on 786-0 [10] was “Dose-dependent-effect”.
Take `CC(=O)C1=NN(c2ccccc2)C(c2cccc(C)c2OCc2ccc(Cl)cc2Cl)N1c1ccc(N(C)C)cc1` (stereo not given): the result in the data set on 786-0 [1] was Active. Further, the EC50 in the data set on 786-0 [2] was found to be 1230 nM.
In the same order, the values of `COc1cccc(C2N(c3ccccc3)N=C(C(C)=O)N2c2ccc(N(C)C)cc2)c1OCc1ccc(C(F)(F)F)cc1` (stereo not given) are “Active” and 80 nM.
Take `COc1cccc(C2N(c3ccccc3)N=C(C(C)=O)N2c2ccc(N(C)C)cc2)c1OCc1cccc(Cl)c1` (stereo not given): the outcome with 786-0 [1] was Active. In the data set with 786-0 [2], the EC50 was 190 nM.
Consider `CC(=O)C1=NN(c2ccccc2)C(c2cc(C)c(OCc3ccc(Cl)cc3Cl)c(C)c2)N1c1ccc(N(C)C)cc1` (stereo not given), for which, in the data set with 786-0 [2], the EC50 was 150 nM.
Consider `COc1cccc(C2N(c3ccccc3)N=C(C(C)=O)N2c2ccc(N(C)C)cc2)c1OCc1c(F)cccc1F` (stereo not given), for which, in the data set on 786-0 [1], the outcome was Active. Further, the EC50 with 786-0 [2] came to 120 nM.
The corresponding values for `COc1cccc(C2N(c3ccccc3)N=C(C(C)=O)N2c2ccc(N(C)C)cc2)c1OCc1cccc(Br)c1` (stereo not given) are “Active” and 120 nM.
